One molecule from US9670172B2, “Heterocyclic compounds and methods of use” (Medivation Technologies, Inc., priority 2014, dated 2017) can be followed below.

Values after ≈ are worked out from the molar mass of the structure shown. Some results are limits rather than exact numbers.

Series [1] deals with SREBP2. The series is described as follows: SREBP2 cleavage in HEPG2 cells (Western blot normalized to actin). In kind it is cell-based. To be noted: Homo sapiens, HepG2 cells, read-out: Average SREBP2 cleavage (% Inhibition, n = 3). Here is the method: Average SREBP2 cleavage in HEPG2 cells was measured in the presence of compounds disclosed in Table 1. HepG2 cells were seeded at 500,000 cells per well in 6-well plates in DMEM supplemented with 10% FBS. After 2 days, cells were treated with compounds (20 μM) for 1 day in DMEM without FBS. Western blots were normalized with respect to actin.
The results are shown in Table 3 as percent inhibition@20 μM, and in Table 4 as percent inhibition@5 μM.

A short description of series [2]: Solubility study at different pH (Pion, Inc.). The note with it: aqueous buffer. It is filed as physicochemical. From the text: Other ionized forms are conceivable, but those presented here are a protonated form; a neutral or internal zwitterionic form; and an anionic form. Which form would exist is dependent upon the pH of the aqueous or physiological solution in which the compound is placed. […] These values are similar to those experimentally obtained under potentiometric and spectrophotometric methods [courtesy of Pion, Inc.], found to be 3.09 and 5.27. […] It is postulated that the more electronegative nature of the CF3 group results in a more highly acidic nature of the compound. Based on the calculated/measured pKa values of the trifluoromethylsulfonamide containing compounds claimed herein, it is likely that at a pH of 6-8, these compounds will predominantly exist in the anionic form, with the above equilibrium lying to the right at higher pH values. The anionic form renders the compound more aqueous soluble and therefore better absorbed. […] When a compound is dosed orally, most of the absorption occurs in the intestines where the pH ranges from 6-8.

Series [3] relates to SREBP2. The experiment in a line: SREBP2 cleavage in HEPG2 cells (Western blot normalized to actin). It is filed as cell-based. The note with it: Homo sapiens, several concentrations, FIG. 1.
The nature of series [4]: HepG2 cell viability by MTS. To be noted: human, HepG2 cells, 3 days, DMEM without FBS, MTS, read-out: Average Viability (% Inhibition, n = 3). It is filed as cell-based. On the procedure: (§1) For viability measurements, HepG2 cells were seeded at 5,000 cells per well in 96-well plates in DMEM supplemented with 10% FBS. After 1 day in culture, cells were treated with compounds (20 μM & 5 μM) for 3 days in DMEM without FBS. Viability was measured by MTS. Treatment with compounds (20 μM & 5 μM) was carried out in medium without FBS, and viability was measured by MTS. […]

A further series concerns HepG2 cells. The experiment in a line: HepG2 cell viability by MTS. In kind it is cell-based. The note with it: Homo sapiens, several concentrations, FIG. 1. On the procedure:
as §1

Series [5] can be described thus: pKa by potentiometric and spectrophotometric methods (Pion, Inc.). In kind it is physicochemical. The note with it: two values, read-out: pKa experimentally obtained. From the text: As has been described above, the inherent pKa(s) of molecules can be assessed by potentiometric methods known to the skilled artisan, typically UV spectrophotometry [see, for example, Julémont, et al. J. Med. Chem. (2002), 45, pp 5182-5185]. In-silico methods can be used as a predictive tool, and software is commercially available from, for example, ACD/Labs, Molecular Discovery, ChemAxon, and other vendors. […] The compounds provided herein contain several ionizable centers including, for example, the trifluoromethylsulfonamide nitrogen atom; the thiazole ring nitrogen atom; the “ring A” pyridine nitrogen atom, etc.
Other ionized forms are conceivable, but those presented here are a protonated form; a neutral or internal zwitterionic form; and an anionic form. Which form would exist is dependent upon the pH of the aqueous or physiological solution in which the compound is placed. […] These values are similar to those experimentally obtained under potentiometric and spectrophotometric methods [courtesy of Pion, Inc.], found to be 3.09 and 5.27. […] Based on the calculated/measured pKa values of the trifluoromethylsulfonamide containing compounds claimed herein, it is likely that at a pH of 6-8, these compounds will predominantly exist in the anionic form, with the above equilibrium lying to the right at higher pH values. […]

For the molecule `CC(C)Cc1cc(-c2nc(-c3ccc(NS(=O)(=O)C(F)(F)F)cc3Cl)cs2)ccn1` [Compound 37, N-(3-chloro-4-(2-(2-isobutylpyridin-4-yl)thiazol-4-yl)phenyl)-1,1,1-trifluoromethanesulfonamide], the inhibition at 20 µM in the series with SREBP2 [1] (24 h, 20 μM, 1 day, DMEM without FBS) turned out to be 94.6%. In addition, the inhibition at 5 µM in the series on SREBP2 [1] (5 μM) was found to be 75%. For the same molecule, the solubility in series [2] (pH 6.0) is 13 µg/mL (≈ 27.3 µM); in series [2] (pH 7.0), 104 µg/mL (≈ 219 µM); in series [2] (pH 8.0), > 130 µg/mL. Moreover, the IC50 with SREBP2 [3] was determined as 4.6 µM; in the series on HepG2 cells, 2.15 µM. In addition, the cytotoxicity at 3 days, 5 μM in series [4] (5 μM) came out at 94%. Moreover, the cytotoxicity at 3 days, 20 μM in series [4] (20 μM) came to 95%. Further, in series [5], the pKa was 3.09.
